Converted amounts (≈) assume the structure as drawn.
Experiments:
Test in all cases: ≥ marks a high value that may be exact or a test limit, other limits are often not marked, values filed in µg/mL are converted to µM
[1] = system: Staphylococcus aureus 16472
[2] = system: Micrococcus luteus AB2010179
[3] = system: Candida tropicalis AY91009
[4] = system: Staphylococcus aureus AB94004
Pseudomonas putida = system: Pseudomonas putida
Enterococcus sp. S13 = system: Enterococcus sp. S13
[5] = system: Klebsiella oxytoca AB2010143
[6] = system: Salmonella enterica AB2010185
[7] = system: Escherichia coli DH5alpha
[8] = system: Bacillus magaterium AB90008
[9] = system: Enterobacter cloacae AB2010162
[10] = system: Acinetobacter baumannii CR86
[11] = system: Acinetobacter baumannii Ab11
[12] = system: Acinetobacter baumannii CR17
[13] = system: Acinetobacter baumannii ATCC 17978
Escherichia coli LEC001 = system: Escherichia coli LEC001
Klebsiella pneumoniae M6 = system: Klebsiella pneumoniae M6
[14] = system: Staphylococcus aureus USA 300
[15] = system: Acinetobacter baumannii AYE
Candida krusei NCPF 3876 = system: Candida krusei NCPF 3876
[16] = system: Escherichia coli NCTC 12923
[17] = system: Klebsiella pneumoniae NCTC 13368
Bacillus subtilis = system: Bacillus subtilis
Staphylococcus aureus = system: Staphylococcus aureus
[18] = system: Pseudomonas aeruginosa PAO1
[19] = system: Escherichia coli ATCC 25922
[20] = system: Candida tropicalis NCPF 8760
[21] = system: Staphylococcus aureus ATCC 25923
[22] = system: Staphylococcus aureus ATCC 9144
[23] = system: Pseudomonas aeruginosa NCTC 13437
[24] = system: Candida parapsilosis NCPF 3209
[25] = system: Staphylococcus aureus NCTC 13616
[26] = system: Candida glabrata NCPF 8018
[27] = system: Candida albicans ATCC 90028
[28] = system: Escherichia coli ATCC 25726
[29] = system: Batrachochytrium dendrobatidis JEL-197
[30] = system: Cryptococcus neoformans L26
Candida albicans 38U = system: Candida albicans 38U
Trichophyton rubrum = system: Trichophyton rubrum
[31] = system: Pseudomonas syringae pv. syringae EPS 94
[32] = system: Enterococcus faecalis ATCC 12953
Candida albicans 01U = system: Candida albicans 01U
[33] = system: Streptococcus pyogenes ATCC 19615
[34] = system: Escherichia coli ATCC 8739
[35] = system: Staphylococcus aureus ATCC 29213
[36] = system: Trichophyton mentagrophytes
[37] = system: Proteus mirabilis ATCC 25933
[38] = system: Klebsiella pneumoniae ATCC 13885
[39] = system: Xanthomonas arboricola pv. pruni CFBP 5563
[40] = system: Candida parapsilosis ATCC 22019
[41] = system: Erwinia amylovora PMV 6076
[42] = system: Pseudomonas syringae pv. actinidiae Psa3700.1.1
[43] = system: Bacillus subtilis ATCC 6633
[44] = system: Xanthomonas campestris pv. Vesicatoria 2133-2
[45] = system: Salmonella enterica subsp. enterica serovar Typhimurium ATCC 14028
[46] = system: Xanthomonas fragariae Xf349-9A
[47] = system: Cryptococcus neoformans L30
[48] = system: Pseudomonas aeruginosa ATCC 15442

CC[C@H](C)[C@H](NC(=O)CNC(=O)[C@H](CC(N)=O)NC(=O)[C@H](Cc1c[nH]c2ccccc12)NC(=O)[C@@H](NC(=O)[C@@H](NC(=O)[C@H](CO)NC(=O)[C@H](CC(C)C)NC(=O)[C@@H](N)Cc1ccccc1)[C@@H](C)O)[C@@H](C)CC)C(=O)N[C@@H](CCCCN)C(=O)N[C@@H](CO)C(=O)N[C@@H](CC(C)C)C(=O)N[C@@H](CC(C)C)C(=O)O [FLSTIWNGIKSLL]
MIC [1]: 12 µM (≈ 17.9 µg/mL) | MIC [2]: 8 µM (≈ 11.9 µg/mL) | MIC [3]: 17 µM (≈ 25.4 µg/mL) | MIC [4]: 16 µM (≈ 23.9 µg/mL) | MIC (Pseudomonas putida): ≥ 87 µM | MIC (Enterococcus sp. S13): 4 µM (≈ 5.97 µg/mL) | MIC [5]: ≥ 87 µM | MIC [6]: ≥ 84 µM | MIC [7]: ≥ 36 µM | MIC [8]: 6 µM (≈ 8.95 µg/mL) | MIC [9]: ≥ 87 µM

CC[C@H](C)[C@H](NC(C)=O)C(=O)N[C@@H](CC(N)=O)C(=O)N[C@@H](CC(C)C)C(=O)N[C@@H](CCCCN)C(=O)N[C@@H](C)C(=O)N[C@@H](CC(C)C)C(=O)N[C@@H](C)C(=O)N[C@@H](C)C(=O)N[C@@H](CC(C)C)C(=O)N[C@@H](C)C(=O)N[C@@H](CCCCN)C(=O)N[C@@H](CCCCN)C(=O)N[C@H](C(=O)N[C@@H](CC(C)C)C(N)=O)[C@@H](C)CC [INLKALAALAKKIL]
MIC [10]: 21 µM (≈ 31.9 µg/mL) | MIC [11]: ≥ 42 µM | MIC [12]: 10.5 µM (≈ 16 µg/mL)

CC[C@H](C)[C@H](NC(=O)[C@@H](N)CCCCN)C(=O)N[C@@H](C)C(=O)N[C@@H](CCCCN)C(=O)N[C@H](C(=O)N[C@@H](C)C(=O)N[C@@H](CC(C)C)C(=O)N[C@@H](CCCCN)C(=O)N[C@@H](C)C(=O)N[C@@H](CC(C)C)C(N)=O)C(C)C [KIAKVALKAL]
MIC [13]: ≥ 121 µM | MIC (Escherichia coli LEC001): ≥ 121 µM | MIC (Klebsiella pneumoniae M6): ≥ 121 µM | MIC [14]: ≥ 121 µM | MIC [15]: ≥ 121 µM | MIC (Candida krusei NCPF 3876): ≥ 121 µM | MIC [16]: ≥ 121 µM | MIC [17]: ≥ 121 µM | MIC (Bacillus subtilis): 13.7 µM (≈ 14.4 µg/mL) | MIC (Staphylococcus aureus): 64.3 µM (≈ 67.7 µg/mL) | MIC [18]: > 121 µM | MIC [19]: 22.4 µM (≈ 23.6 µg/mL) | MIC [20]: ≥ 121 µM | MIC [21]: 8.25 µM (≈ 8.69 µg/mL) | MIC [22]: ≥ 121 µM | MIC [23]: ≥ 121 µM | MIC [24]: ≥ 121 µM | MIC [25]: ≥ 121 µM | MIC [26]: ≥ 121 µM

CC[C@H](C)[C@H](NC(=O)[C@H](Cc1ccccc1)NC(=O)[C@H](CCCCN)NC(=O)[C@H](CCCCN)NC(=O)[C@H](C)NC(=O)[C@H](CC(C)C)NC(=O)[C@H](CC(N)=O)NC(=O)[C@@H](NC(=O)[C@H](CC(C)C)NC(=O)[C@@H](NC(=O)[C@H](CC(=O)O)NC(=O)[C@H](CC(C)C)NC(=O)[C@H](Cc1ccccc1)NC(=O)[C@@H](N)CC(N)=O)[C@@H](C)O)[C@@H](C)CC)C(N)=O [NFLDTLINLAKKFI]
MIC [27]: ≥ 50 µM | MIC [28]: ≥ 100 µM | MIC [29]: 25 µM (≈ 41.2 µg/mL) | MIC [21]: 50 µM (≈ 82.5 µg/mL)

CSCC[C@H](NC(=O)CNC(=O)[C@H](CCC(N)=O)NC(=O)[C@H](C)NC(=O)[C@H](CCCN=C(N)N)NC(=O)CNC(=O)[C@H](C)NC(=O)[C@@H](NC(=O)[C@@H](N)CO)C(C)C)C(N)=O [SVAGRAQGM]
MIC [30]: ≥ 144 µM | MIC (Candida albicans 38U): 18 µM (≈ 15.8 µg/mL) | MIC (Trichophyton rubrum): 18 µM (≈ 15.8 µg/mL) | MIC [31]: ≥ 50 µM | MIC [32]: ≥ 36 µM | MIC (Candida albicans 01U): 18 µM (≈ 15.8 µg/mL) | MIC [33]: ≥ 36 µM | MIC [34]: 18 µM (≈ 15.8 µg/mL) | MIC [35]: 18 µM (≈ 15.8 µg/mL) | MIC [36]: 18 µM (≈ 15.8 µg/mL) | MIC [37]: 18 µM (≈ 15.8 µg/mL) | MIC [38]: 9 µM (≈ 7.88 µg/mL) | MIC [39]: ≥ 50 µM | MIC [40]: ≥ 144 µM | MIC [41]: ≥ 50 µM | MIC [42]: ≥ 50 µM | MIC [43]: ≥ 36 µM | MIC [44]: ≥ 50 µM | MIC [45]: 18 µM (≈ 15.8 µg/mL) | MIC [46]: ≥ 50 µM | MIC [47]: ≥ 144 µM | MIC [48]: 9 µM (≈ 7.88 µg/mL)

From DBAASP
